Results: patent US4309439A, “Substituted-acetic acid ester” (Sumitomo Chemical Company, Limited, priority 1975, dated 1982)
≈ marks a conversion by molar mass, not a printed value. Where two headings read alike, the source gives them in different places.

Tests used:
Format in all cases: in vivo
[1] = system: smaller brown planthoppers (Laodelphax striatellus); assay: LC50 against smaller brown planthoppers on sprayed rice plants (Experimental Example 2); settings: 24 h
Experimental: The following compounds as a control are also treated in the same manner as described above.
The emulsifiable concentrates thus formulated were diluted with water to a required concentration. Each test solution thus prepared was individually sprayed on the rice plants in a pot which had elapsed 25 days after sowing, in a proportion of 10 ml/pot. Thereafter, each pot was covered with a cylindrical wire net and 15 smaller brown planthoppers (Laodelphax striatellus) were liberated in the pot. After one day, the dead and alive were observed and the value of LC50 of every concentrate was obtained from the mortality.
The compounds of the present invention are expressed by the foregoing compound number.

[2] = system: green rice leafhopper adults (Nephotettix cincticeps); assay: kill of green rice leafhopper adults by dusts on rice plants (Example 18); settings: dust of Preparation Example 6 (with piperonyl-butoxide), 3 kg/10 are; after one day; 1440 min
Experimental: One part of each of the present compounds (2), (4), (5), (7), (12), (17), (20), (21), (22), (25), (26), and (35) and 5 parts of piperonyl-butoxide are dissolved in 20 parts of acetone, and then 94 parts of 300 mesh talc are added thereto. After thoroughly mixing in a mortar while stirring, acetone is removed by evaporation. Thus dust of each compound is obtained.
Among the dusts formulated according to Preparation Example 6, those containing the present compounds (2), (7), (12), and (25) were each dusted, using Belljar duster, on the rice plants in a 1/50,000 Wagner pot which had elapsed 45 days after sowing, in a proportion of 3 kg/10 are. After covering the pot with wire net, about 30 green rice leafhopper adults (Nephotettix cincticeps) were liberated therein. After one day, more than 70% of the test insects were killed.

[3] = system: house-fly adults (Musca domestica); assay: knock-down of house-fly adults by 0.1% oil spray in glass chamber (Experimental Example 3); settings: 0.7 ml, (70 cm)^3 glass chamber
Experimental: Each of the following present compounds is formulated into a 0.1% oil spray using deodorized kerosene. The following compounds as a control are also likewise treated.
About 50 house-fly adults (Musca domestica) are liberated in a (70 cm)^3 glass chamber. Thereafter, 0.7 ml of each oil spray is sprayed under a pressure of 1.5 kg/cm^2 and the knock-down of the insects with the lapse of time is observed. This test is repeated several times with each oil spray to obtain the values of KT50 (time required for 50% knock-down) as shown in the following table. The present compounds are indicated by the foregoing compound number.

[4] = system: Carmine mite female adults (Tetranychus cinnabarinus); assay: damage of kidney beans by carmine mites (Example 20); settings: emulsifiable concentrate of Preparation Example 1 diluted 500 times; 10 cc/pot; after 10 days
Experimental: To 20 parts of each of the present compounds (1), (2), (3), (4), (5), (8), (10), (11), (14), (18), (19), (21), (23), (28), (30) and (33) are added 20 parts of Sorpol SM-200 (the same as above) and 60 parts of xylene. The mixtures are each thoroughly mixed to make a solution. Thus emulsifiable concentrate of each compound is obtained.
Carmine mite female adults (Tetranychus cinnabarinus) were made parasitic on the leaves of potted kidney beans (2-leaf stage) which had elapsed 9 days after sowing, in a proportion of 10-15/leaf. […] Among the emulsifiable concentrates formulated according to Preparation Example 1, those containing the present compounds (1), (4), (14), (19), (23), (30) and (33) were each diluted 500 times with water. At this time, each test solution thus prepared was sprayed in a proportion of 10 cc/pot by means of a turn table. After 10 days, damage of the kidney beans by the insects was checked.

[5] = system: green rice leafhoppers (Nephotettix cincticeps); assay: mortality of green rice leafhoppers on sprayed rice plants (Experimental Example 1); settings: 30% concentrate / wettable powder diluted 300 times; 10 ml/pot; after one day; 1440 min
Experimental: An emulsifiable concentrate is prepared by blending 30% of each of the present compounds (1) to (35), 50% of xylene and 20% of Sorpol SM-200 (a registered trade mark of Toho Kagaku Co.).
The emulsifiable concentrates thus formulated were diluted 300 times with water. […] Each test solution thus prepared was individually sprayed on the rice plants in a pot which had elasped 25 days after sowing, in a proportion of 10 ml/pot. Thereafter, each pot was covered with a cylindrical wire net and 15 green rice leafhoppers (Nephotettix cincticeps) were liberated in the pot.

[6] = system: armyworms and cutworms, cabbage worm and diamond-back moth; assay: green-house test on chinese cabbages with armyworms and cutworms, cabbage worm and diamond-back moth (Example 21); settings: 20% solution in cellosolve; active ingredient 50 g/10 are
Experimental: A green-house (3 m in height) was divided into plots having an area of 30 m^2 and chinese cabbages were grown up therein. Thereafter, armyworms and cutworms, cabbage worm and diamond-back moth were artificially made parasitic on the cabbages. The present compounds (1), (3) and (4) were each dissolved in cellosolve to make a 20% solution. Each test solution thus prepared was sprayed under pressure on the cabbages so that the amount of the active ingredient becomes 50 g/10 are.

[7] = rice plants sprayed 10 ml/pot, after one day, read-out: LC50

C#CCC=C(C)C(C#C)OC(=O)C(c1ccc(Cl)c(Cl)c1)C(C)C (stereo not drawn) [Compound 2, 4-Methylocta-4-ene-1,7-diyne-3-yl α-isopropyl-3,4-dichlorophenyl-acetate]
LC50 [1, 7]: 31 µg/mL (≈ 85.3 µM)
test insects killed [2]: more than 70%

C#CCC=C(CC)C(C#C)OC(=O)C(c1ccc(Cl)cc1)C(C)C (stereo not drawn) [Compound 10, 4-Ethylocta-4-ene-1,7-diyne-3-yl α-isopropyl-4-chlorophenylacetate]
LC50 [1, 7]: 34 µg/mL (≈ 99.2 µM)

C#CCc1ccc(COC(=O)C(c2ccc(Cl)cc2)C(C)C)o1 (stereo not drawn) [reference compound]
LC50 [1, 7]: 68 µg/mL (≈ 206 µM)

CC(C)=CC1C(C(=O)OCc2coc(Cc3ccccc3)c2)C1(C)C (stereo not drawn) [Resmethrin, reference compound]
KT50 (time required for 50% knock-down) [3]: > 600 s

C#CCC=C(C)C(C#C)OC(=O)C(c1cc2ccccc2o1)C(C)C (stereo not drawn) [Compound 34, 4-Methylocta-4-ene-1,7-diyne-3-yl 2-(2-benzo-furyl)-isovalerate]
KT50 (time required for 50% knock-down) [3]: 170 s

C#CCC=C(C)C(C#C)OC(=O)C(c1coc(C)c1)C(C)C (stereo not drawn) [Compound 6, 4-Methylocta-4-ene-1,7-diyne-3-yl 2-(5-methyl-3-furyl)-isovalerate]
LC50 [1, 7]: 32 µg/mL (≈ 107 µM)

C#CCCC=C(C)C(C#C)OC(=O)C(c1ccc(Br)cc1)C(C)C (stereo not drawn) [Compound 11, 4-Methylnona-4-ene-1,8-diyne-3-yl α-isopropyl-4-bromophenylacetate]
KT50 (time required for 50% knock-down) [3]: 147 s

C#CCC=C(C)C(C#C)OC(=O)C(c1ccc(OC)c(OC)c1)C(C)(C)C (stereo not drawn) [Compound 19, 4-Methylocta-4-ene-1,7-diyne-3-yl α-t-butyl-3,4-dimethoxyphenyl-acetate]
LC50 [1, 7]: 43 µg/mL (≈ 117 µM)
increase in damage of the kidney beans [4]: an increase in the damage was not observed

C#CCC(C(=O)OC(C#C)C(=CCCC=C)CC)c1ccc(CC)cc1 (stereo not drawn) [Compound 25, 4-Ethylnona-4,8-diene-1-yne-3-yl α-propargyl-4-ethylphenylacetate]
test insects killed [2]: more than 70%

CC(C)C(C(=O)OCc1coc(Cc2ccccc2)c1)c1ccc(Cl)cc1 (stereo not drawn) [reference compound]
KT50 (time required for 50% knock-down) [3]: 510 s

CNC(=O)Oc1cccc2ccccc12 [Carbaryl, 1-naphthyl-N-methylcarbamate]
mortality [5]: more than 90%

C#CCC=C(C)C(C#C)OC(=O)C(c1ccc2c(c1)CCCC2)C(C)C (stereo not drawn) [Compound 5, 4-Methylocta-4-ene-1,7-diyne-3-yl α-isopropyl-3,4-tetramethylenephenyl-acetate]
KT50 (time required for 50% knock-down) [3]: 140 s

C#CC(C=Cc1ccccc1)OC(=O)C(c1ccc(SC)cc1)C(C)C (stereo not drawn) [Compound 27, 5-Phenylpenta-4-ene-1-yne-3-yl α-isopropyl-4-methylthiophenyl-acetate]
LC50 [1, 7]: 66 µg/mL (≈ 181 µM)

C#CC(OC(=O)C(c1ccc(F)cc1)C(C)C)C(C)=CCc1ccccc1 (stereo not drawn) [Compound 12, 6-Phenyl-4-methylhexa-4-ene-1-yne-3-yl α-isopropyl-4-fluoro-phenylacetate]
test insects killed [2]: more than 70%

C#CCC=C(C)C(C#C)OC(=O)C(c1cc2c(s1)CCC2)C(C)C (stereo not drawn) [Compound 30, 4-Methylocta-4-ene-1,7-diyne-3-yl 2-(4,5-tri-methylene-thienyl)-isovalerate]
KT50 (time required for 50% knock-down) [3]: 158 s
increase in damage of the kidney beans [4]: an increase in the damage was not observed

C#CCC=C(C)C(C#C)OC(=O)C(c1ccc2c(c1)CCC2)C(C)C (stereo not drawn) [Compound 33, 4-Methylocta-4-ene-1,7-diyne-3-yl 2-(5-indanyl)-isovalerate]
increase in damage of the kidney beans [4]: an increase in the damage was not observed

C#CCC=C(C)C(C#C)OC(=O)C(c1ccc(Cl)cc1)C(C)C (stereo not drawn) [Compound 1, 4-Methylocta-4-ene-1,7-diyne-3-yl α-isopropyl-4-chlorophenylacetate]
LC50 [1, 7]: 23 µg/mL (≈ 69.9 µM)
KT50 (time required for 50% knock-down) [3]: 128 s
increase in damage of the kidney beans [4]: an increase in the damage was not observed
spread of damage by the insect [6]: no spread of damage by the insect was observed

C=CCC1=C(C)C(OC(=O)C2C(C=C(C)C)C2(C)C)CC1=O (stereo not drawn) [Allethrin, reference compound]
KT50 (time required for 50% knock-down) [3]: 504 s

C#CCCC=C(C)C(C#C)OC(=O)C(CC)c1ccc(C#N)cc1 (stereo not drawn) [Compound 23, 4-Methylnona-4-ene-1,8-diyne-3-yl α-ethyl-4-cyanophenylacetate]
LC50 [1, 7]: 50 µg/mL (≈ 157 µM)
KT50 (time required for 50% knock-down) [3]: 140 s
increase in damage of the kidney beans [4]: an increase in the damage was not observed

C#CCC=C(C)C(C#C)OC(=O)C(c1cc2c(s1)CCCC2)C(C)C (stereo not drawn) [Compound 29]
LC50 [1, 7]: 48 µg/mL (≈ 135 µM)

CNC(=O)Oc1ccccc1Cl [Hopcide, reference compound]
LC50 [1]: 75 µg/mL (≈ 404 µM)

COc1ccc(C(C(=O)OCc2cccc(Oc3ccccc3)c2)C(C)C)cc1 (stereo not drawn) [reference compound]
LC50 [1, 7]: 87 µg/mL (≈ 223 µM)

C#CCC=C(C)C(C#C)OC(=O)C(c1ccc2c(c1)OCO2)C(C)C (stereo not drawn) [Compound 4, 4-Methylocta-4-ene-1,7-diyne-3-yl α-isopropyl-3,4-methylenedioxyphenyl-acetate]
LC50 [1, 7]: 28 µg/mL (≈ 82.7 µM)
KT50 (time required for 50% knock-down) [3]: 136 s
increase in damage of the kidney beans [4]: an increase in the damage was not observed
spread of damage by the insect [6]: no spread of damage by the insect was observed

C#CCC=C(C)C(C#C)OC(=O)C(c1ccc(OC)cc1)C(C)C (stereo not drawn) [Compound 3, 4-Methylocta-4-ene-1,7-diyne-3-yl α-isopropyl-4-methoxyphenylacetate]
LC50 [1, 7]: 35 µg/mL (≈ 108 µM)
KT50 (time required for 50% knock-down) [3]: 139 s
spread of damage by the insect [6]: no spread of damage by the insect was observed

C#CCc1ccc(C(C#C)OC(=O)C(c2ccc(OC)cc2)C(C)C)o1 (stereo not drawn) [reference compound]
KT50 (time required for 50% knock-down) [3]: 183 s

COc1ccc(C(C(=O)OC(C#N)c2cccc(Oc3ccccc3)c2)C(C)C)cc1 (stereo not drawn) [drawing 45, reference compound]
LC50 [1, 7]: 73 µg/mL (≈ 176 µM)

C#CC(OC(=O)C(c1ccc(OC)cc1)C(C)C)C(C)=CCCC=C (stereo not drawn) [Compound 14, 4-Methylnona-4,8-diene-1-yne-3-yl α-isopropyl-4-methoxyphenylacetate]
LC50 [1, 7]: 46 µg/mL (≈ 135 µM)
KT50 (time required for 50% knock-down) [3]: 174 s
increase in damage of the kidney beans [4]: an increase in the damage was not observed

COc1ccc(C(C(=O)OC(C#N)c2cccc(Oc3ccccc3)c2)C(C)C)cc1 (stereo not drawn) [drawing 50, reference compound]
KT50 (time required for 50% knock-down) [3]: 490 s

C#CCC=C(C)C(C#C)OC(=O)C(c1csc(C)c1)C(C)C (stereo not drawn) [Compound 7, 4-Methylocta-4-ene-1,7-diyne-3-yl 2-(5-methyl-3-thienyl)-isovalerate]
KT50 (time required for 50% knock-down) [3]: 175 s
test insects killed [2]: more than 70%
